Data as given in patent US20260092085A1, “SYNTHETIC TRIPLEX PEPTIDE NUCLEIC ACID-BASED INHIBITORS FOR CANCER THERAPY” (University of Connecticut, priority 2022, published 2026).

How the values were obtained:
U2932 cells = experiment: Cell viability by trypan blue assay, U2932; type: cell-based, human
Procedure: (§1) Cell viability was performed using trypan blue-based assay (n=3 technical triplicate), data represented as mean±(SEM), * represents the statistical analysis were performed relative to Scr-γtcPNA-155 and ♦ represent analysis performed relative to PNA-155. *p<0.05, **p<0.01, ***p<0.001 and ****p<0.0001, ♦p<0.05, ♦♦p<0.01, unpaired two-tailed t-test was used for statistical analysis. The experiment was repeated three times and in triplicate.
(§2) Cell viability was performed using trypan blue-based assay (n=3), data represented as mean±standard error mean (SEM), *p<0.05, **p<0.01. Unpaired two-tailed t-test was used for statistical analysis.
(§3) Cell viability was performed using trypan blue-based assay (n=3), data represented as mean±standard error mean (SEM).
(§4) Cell viability by trypan blue assay: Diffused large B cell lymphoma (DLBCL) cell lines like SUDHL-2 (ATCC® CRL-2956™) and SUDHL-5 (ATCC® CRL-2958™) cells were purchased from ATCC (Virginia, USA). The cells were regularly tested for Mycoplasma contamination using MycoAlert™ Mycoplasma detection kit (Lonza). All the cells used in the experiment were passaged less than 8 times. 10,000 U2932, SUDHL-5, or SUDHL-2 cells were plated in a 96 well plate. The cells were treated with different doses (500 nM, 1000 nM, 2000 nM and 4000 nM) of PNA-155, gamma tcPNA-155 or Scr-γtcPNA-155 for 48 hrs in an incubator (37° C. and 5% CO2). The dead cells were marked with trypan blue. Further counting was performed using an automated cell counter (Bio-rad).

SUDHL-2 cells = experiment: Cell viability by trypan blue assay, SUDHL-2; type: cell-based
Procedure: as §1, §2, §3, §4

miR-155 [1] = experiment: Gel shift binding assay (PAGE, SYBR Gold)
Procedure: (1D) Dose-dependent gel shift binding assay of target miR-155 ([…]) with PNA-155 and γtcPNA-155 at indicated concentrations. The samples were prepared in the physiological buffer (2 mM MgCl2, 150 mM KCl, 10 mM NaPi) and incubated for 24 hours at physiological temperature (37° C.) followed by PAGE separation and visualization of bands by SYBr® Gold staining. […] (iii) γtcPNA-155 binding with the target miR-155 by Watson Crick and Hoogsteen base pairing. (iv) γtcPNA-155 binding with the miR-155 by Watson-Crick base pairing. (v) Clamp segment of γtcPNA-155 binding with the target miR-155 by Hoogsteen base pairing.
Gel shift assay: Different concentration of PNA-155 or gamma tcPNA-155 were made in physiological buffer (2 mM MgCl2, 150 mM KCl, 10 mM NaPi) and incubated overnight at 37° C. with 1 μM DNA-155 target. The samples were run through 8% Polyacrylamide gel electrophoresis (PAGE) gel in IX TBE buffer at 120 volts for 35 mins. The gel was stained with SyBr Gold for two mins and visualized using Gel Doc™ EZ Imager (Bio-rad). […]
Next, we evaluated the binding affinity of γtcPNA-155 and PNA-155 with the miR-155 target by polyacrylamide gel electrophoresis (PAGE) based protocols (FIG. 1D). We incubated PNA-155 and γtcPNA-155 with miR-155 at indicated concentrations in physiological buffer and temperature and assessed the binding by PAGE followed by SYBR gold staining. […]

[2] = tested on: miR-155 associated tumor suppressor genes; experiment: Gene expression of miR-155 downstream tumor suppressor genes in SUDHL-2 cells; type: cell-based; conditions: SUDHL-2, in comparison to Scr-γtcPNA-155 and PNA-155
Procedure: Data is normalized with average GAPDH control (n=3), and represented as mean±SEM, **p<0.01. Unpaired two tailed t-test was used for statistical analysis and the analysis was performed relative to Scr-gtcPNA-155.
(§5) Similarly, 400,000 SUDHL-2 cells were seeded in a 12 well plate and treated with 500 nM Scr gamma tcPNA-155, PNA-155 and gamma tcPNA-155 for 48 hrs in an incubator (37° C. and 5% CO2). The RNA was extracted and the samples for gene expression were prepared in the same manner as described above.

SUDHL-5 cells = experiment: Cell viability by trypan blue assay, SUDHL-5; type: cell-based
Procedure: as §1, §2, §3, §4

miR-155 [3] = experiment: miR-155 gene expression by RT-PCR in SUDHL-2 cells; type: cell-based; conditions: SUDHL-2, 500 nM, 48 hours
Procedure: Data represented as mean±standard error mean (SEM). Unpaired two-tailed t-test was used for statistical analysis, **p<0.01. The analysis was performed relative to Scr-γtcPNA-155.
as §5

Substance: γtcPNA-155: serine gamma tail-clamp anti-miR-155 PNA, RR-TJJJJ-OOO-ACCCCTATCACGATTAGCATTAA-RR, SEQ ID NO: 3 (all peptide nucleic acid (PNA); serine gamma PNA, tail-clamp TJJJJ via linkers, Arg-Arg at both ends)
- reduction in cell viability at 500 nM (U2932 cells; U2932, 500 nM, compared to PNA-155 treated group): significant reduction in cell viability
- decrease in cell viability (U2932 cells; U2932, 4UM, 48 hours): ~80%
- reduction in cell viability at 500 nM (SUDHL-2 cells; SUDHL-2, 500 nM, compared to PNA-155 treated group): significant reduction in cell viability
- decrease in cell viability (SUDHL-2 cells; SUDHL-2, 4UM, 48 hours): ~80%
- binding affinity with miR-155 target (comparison) (miR-155 [1]): stronger binding affinity compared to regular PNA-155
- upregulation of miR-155 associated tumor suppressor genes [2]: significant upregulation
- reduction in cell viability at 500 nM (SUDHL-5 cells; SUDHL-5, 500 nM, compared to PNA-155 treated group): significant reduction in cell viability
- decrease in cell viability (SUDHL-5 cells; SUDHL-5, 4UM, 48 hours): ~80%
- decrease in miR-155 gene expression (miR-155 [3]): 63%
